# Assay results published in patent US20090221095A1, “Colorimetric Screening of DNA Binding/Intercalating Agents with Gold Nanoparticle Probes” (NORTHWESTERN UNIVERSITY, priority 2005, published 2009).
# Legend:
# [1] = system: triplex DNA (DNA-1, DNA-2, DNA-3); assay: UV melting (260 nm) of unmodified triplex DNA-1, DNA-2, DNA-3 (no nanoparticles); format: binding; settings: solution-phase unmodified DNA, 1 μM each strand, 6 μM binder, 0.5 M NaCl 10 mM PBS
# Method: To compare the results from the previous examples with more traditional screening techniques, all eight intercalators were screened, plus a control, by monitoring UV absorbance melting curves (260 nm) of unmodified DNA-1, DNA-2, and DNA-3 (1 μM each), with each intercalator (10 μM), (DNA-1; 3′ TTCTTCTTTTTT CT-5′. DNA-2: 5′-TTCTTCTTTTTTCT-3′, DNA-3: 5′-AAGAAGAAAAAA-3′). (FIG. 2B). The melting experiment performed in the presence of BePl has two melting transitions. The first Tm at 34.8° C. is associated with the denaturation of the triplex structure and the second Tm at 61.4° C. is representative of the corresponding duplex.
# To determine the Tm of the duplex DNA in the presence of DNA binders, 2 μM duplex DNA and 5 μM DNA binder were combined in 0.3 M NaCl 10 mM PBS. To determine the Tm of the triplex DNA in the presence of DNA binders, 1 μM of each strand and 6 μM of each DNA binder were combined in 0.5 M NaCl 10 mM PBS. UV-vis melting curves were measured on a CARRY 500 spectrophotometer equipped with a circulating bath. The melting process was monitored by measuring the change in extinction at 260 nm. The solutions were stirred continuously with a magnetic stir bar as the solution temperature was increased at a rate of 0.5° C./min. The first derivative generated from the melting curves was used to determine the Tm.
# A melting transition associated with the triple helix was found only for experiments performed in the presence of BePI (34.8° C.) and CORA (17.1° C.) where BePI is determined to be the stronger binder. This is in agreement with the results determined by the chip-based scanometric method described above.
# [2] = system: triplex DNA on chip surface; assay: Chip-based scanometric detection of triplex DNA binders (silver enhancement); format: binding; settings: 0.3 M NaCl, binder 5 μM, DNA-3 150 nM
# Method: For scanometric detection of duplex or triplex DNA binding molecules, Au nanoparticles (1 nM) and DNA binding molecules (5 μM) in 10 mM PBS buffer of varying NaCl concentrations were added to the microarray slide under hybridization wells (Nanosphere, Inc.). For detection of triplex binders, 150 nM DNA-3 was added. DNA hybridization proceeded for 30 min (for duplex DNA binders) or 1 h (for triplex DNA binders) in a humidity chamber. After hybridization, the slides were washed three times with 0.5 M NaNO3 containing 0.02% Tween 20. The arrays were dried using a benchtop spinner. Silver enhancement solution (Nanosphere, Inc.) was added for Au-NP signal amplification (1 mL total volume/array, 1.5-min development time for duplex DNA binding molecules and 3 min for triplex binding molecules). The reaction was terminated by washing the slides with NANOpure® water and spin-drying. Light-scattering images from the silver-enhanced chips were recorded using the high-resolution Verigene ID system (Nanosphere, Inc.).
# Capture strands of synthetic oligonucleotides are patterned on a glass chip using a microarrayer. The DNA chip is then exposed to a solution containing three components: 1) complementary DNA (no nanoparticles), 2) DNA functionalized Au nanoparticles (DNA is non-complementary to the arrayed DNA) and 3) DNA binders, Scheme 4. The complementary solution-phase DNA, called DNA-3 in Scheme 2, hybridizes to the DNA on the chip surface and forms a duplex. The Au nanoparticle-bound DNA has the correct sequence to form a triplex with the surface bound duplex through sequence-specific Hoogsteen, or reverse Hoogsteen, base pairing. The triplex structure is relatively unstable at room temperature and will only form in the presence of triplex DNA binding molecules. The presence of the triplex DNA binding molecules increase the stability of the triplex, immobilizing the Au nanoparticles on the chip surface. The chip was then exposed to silver enhancement solution for further signal enhancement and then imaged using a Verigene ID scanner.
# The assay was performed in the presence of two triplex binders, coralyn (CORA) and benzo[e]pyridoindole (BePI), seven duplex DNA binders, 4′,6-diamidino-2-phenylindole (DAPI), ellipticine (EIPT), amsacrine (AMSA), daunorubicin (DNR), anthraquinone-2-carboxylic acid (AQ2A), ethidium bromide (EB), and 9-aminoacridine (9-AA))., and one control (no DNA-3). Similar to the DNA duplex, the formation of the DNA triplex is a reversible process which is affected by both temperature and salt concentration. However, compared to the duplex, the stability of the triplex is much more sensitive to salt concentration. Therefore, to determine the relative binding strength of the triplex DNA binders, the assay was performed at varying salt concentrations, FIG. 7. At 0.3 M NaCl, both the strong (BePI) and weaker (CORA) triplex binders show signal.
structure (smiles),measurement,setting,value
"COc1cc2cc3c4cc(OC)c(OC)cc4cc[n+]3c(C)c2cc1OC [CORA, coralyn]",Tm 2-1,[1]; duplex melting transition,60.1 °C
same,Tm3-2,"[1]; triple helix melting transition, ND read as not detected",17.1 °C
same,scanometric signal,[2],show signal
